In PubChem BioAssay (NCI):
“And” between values parts separate entries of the source, which are not always exact repeats. Equal values may be shown once.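 Growth conditions: 96-well plates. Treatment: test compound, 48 hours, 5 concentrations. Analysis: linear interpolation between bracketing concentrations; unreached endpoints set to highest concentration. GI50: concentration for 50% inhibition of growth. Definition used: TGI = concentration required for complete inhibition of growth.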

Tests used:
Experiment in all cases: NCI tumour cell line growth inhibition, 48 h
[1] = test system: XF 498 CNS
[2] = test system: SNB-78 CNS
[3] = test system: DMS 273 small cell lung
[4] = test system: M19-MEL melanoma
[5] = test system: DMS 114 small cell lung
[6] = test system: MDA-N
[7] = test system: KM20L2 colon
[8] = test system: RXF-631 renal
[9] = test system: HOP-18 NSCLC
[10] = test system: P388 leukemia
[11] = test system: SN12K1 renal
[12] = test system: P388/ADR leukemia

SMILES | TGI [1] [µM] | TGI [2] [µM] | TGI [3] | TGI [4] | TGI [5] | TGI [6] | TGI [7] [µM] | TGI [8] [µM] | TGI [9] | other results
COc1c(NC(C)=O)cc(C)cc1NC(C)=O | > 100 | > 100 | > 100 µM | > 100 µM | > 100 µM | – | – | – | – | –
C=C(C)C1CC2(C)C(C)CC(OC(=O)/C(C)=C\C)CC2C(OC(=O)/C(C)=C\C)C1O (configuration not stated) | – | – | – | – | – | > 100 µM | – | – | – | –
COC(=O)C1=C(C(=O)OC)C23CC1C1C(C(=O)OC)=C(C(=O)OC)C12C1C=CC3C2C(=O)OC(=O)C21 (configuration not stated) | > 100 | > 100 | > 100 µM | > 100 µM | 80.3 µM | – | > 100 | > 100 | – | –
NNC(=S)N/N=C(/C(=O)Nc1cc(Cl)ccc1Cl)C1C(=O)Nc2ccccc2S1=O (configuration not stated) | > 100 | > 100 | – | > 100 µM | > 100 µM | – | > 100 | – | > 100 µM | –
COc1ccc(C(=O)C(C(=O)C(=O)Nc2ccc(Cl)c(Cl)c2)c2ccc(OC)cc2)cc1 (configuration not stated) | > 100 | > 100 | > 100 µM | > 100 µM | > 100 µM | – | > 100 | – | > 100 µM | –
CC(C)(C)CC(C)(C)c1cc2c(O)c(c1)Cc1cc(C(C)(C)CC(C)(C)C)cc(c1O)Cc1cc(C(C)(C)CC(C)(C)C)cc(c1O)Cc1cc(C(C)(C)CC(C)(C)C)cc(c1O)Cc1cc(C(C)(C)CC(C)(C)C)cc(c1O)Cc1cc(C(C)(C)CC(C)(C)C)cc(c1O)C2 | > 100 | > 100 | > 100 µM | > 100 µM | > 100 µM | – | > 100 | > 100 | – | –
O=S(=O)(O)c1ccc(-c2nnc(-c3ccccn3)nc2-c2ccc(S(=O)(=O)O)o2)o1 | – | – | – | – | – | > 100 µM | – | – | – | –
CCOC(=O)C1=C(O)CSC1=Nc1ccccc1 | – | > 100 | > 100 µM | > 100 µM | – | – | > 100 | > 100 | – | –
O=P(NC12CC3CC(CC(C3)C1)C2)(N1CC1)N1CC1 | – | > 100 | > 100 µM | > 100 µM | > 100 µM | > 100 µM | > 100 | – | > 100 µM | –
O=C([O][Hg][CH2]C1COC([CH2][Hg][O]C(=O)c2ccccc2)CO1)c1ccccc1 (configuration not stated) | 31.6 | 32.6 | 9.83 µM | 22.9 µM | 28.8 µM | 25.5 µM and 11.7 µM | 32.7 | – | 23.5 µM | GI50 [6]: 12.5 µM and 3 µM; GI50 [9]: 10.8 µM; GI50 [7]: 17.9 µM; GI50 [1]: 17.7 µM; GI50 [2]: 12.2 µM; GI50 [3]: 4.51 µM; GI50 [4]: 9.67 µM; GI50 [5]: 15 µM
CN[C@@H](C)[C@@H](N)c1ccccc1 | – | > 100 | > 100 µM | – | – | – | – | > 100 | > 100 µM | –
Cn1nnnc1N/N=C/c1ccccc1 | – | – | – | – | – | > 10 µM | – | – | – | –
CC(=O)c1cccc(NC(=O)C(=O)C(C2OC(=O)c3ccccc32)[N+](=O)[O-])c1 (configuration not stated) | > 100 | > 100 | – | > 100 µM | > 100 µM | – | > 100 | > 100 | – | –
O=C1C2=Nc3ccccc3C(O)N2c2ccccc21 (configuration not stated) | – | – | – | – | – | 3.5 µM | – | – | – | –
CCOC(=O)c1cc2c(nc1N)-c1ncccc1CC2 | – | > 100 | > 100 µM | > 100 µM | 33 µM | – | > 100 | > 100 | > 100 µM | –
COc1ccc(N=Nc2c(-c3ccccc3)nn(C(=O)CC(=O)Nc3cccc(Cl)c3)c2-c2ccccc2)cc1 | > 100 | – | > 100 µM | > 100 µM | > 100 µM | – | > 100 | – | > 100 µM | –
Cc1c(C(=O)C/C(=N/NC(=O)C[n+]2ccccc2)C(=O)Nc2ccccc2)[n+](=O)c2ccccc2n1O | > 100 | > 100 | > 100 µM | > 100 µM | > 100 µM | – | > 100 | > 100 | > 100 µM | –
CC(=O)C1=C(C)Cn2c(=O)c3ccccc3c(=O)n2C1 | – | – | > 100 µM | > 100 µM | > 100 µM | – | > 100 | > 100 | – | –
C=CC(C)(O)/C=C/C=C(\C)C(CC1OC1(C)C)OC(=O)/C(C)=C\C (configuration not stated) | – | – | – | – | – | > 100 µM | – | – | – | –
O=C(O)CCC(=O)c1ccc2ccc3cccc4ccc1c2c34 | – | – | – | – | – | > 100 µM | – | – | – | –

SMILES | TGI [1] [µM] | TGI [2] [µM] | TGI [3] | TGI [4] | TGI [5] | TGI [6] | TGI [7] [µM] | TGI [8] [µM] | TGI [9] | other results
CCCCCCCCOC(CO)CO | – | – | > 100 µM | > 100 µM | > 100 µM | – | > 100 | – | > 100 µM | –
C[C@]12CCc3nonc3C1CC[C@@H]1C2CC[C@]2(C)NC(=O)CCC12 (some centres not stated) | > 100 | > 100 | > 100 µM | > 100 µM | – | – | > 100 | > 100 | > 100 µM | –
Cc1ccc(Nc2n[nH]c(=S)s2)cc1 | – | – | – | – | – | > 100 µM | – | – | – | –
C/C(=N\N=C(\[Se])N1CCN(c2ccccn2)CC1)c1ccccn1 | – | – | – | – | – | 21 µM | – | – | – | GI50 [6]: 0.424 µM
O=C(c1cc2ccccc2o1)N(Cc1ccccc1)c1ccccc1 | 41.8 | > 100 | > 100 µM | 51.4 µM | 44.2 µM | – | 35.9 | > 100 | 65.9 µM | –
O=c1cccccc1NCCCCCCNc1cccccc1=O | – | > 100 | > 100 µM | > 100 µM | > 100 µM | – | > 100 | > 100 | > 100 µM | –
CN(N=O)C(=O)N[C@@H](C=O)[C@@H](O)[C@H](O)[C@H](O)CO | > 750 | 608 | 575 µM and > 750 µM | 629 µM and > 750 µM | 599 µM and > 750 µM | > 750 µM | > 750 | – | 216 µM and > 750 µM | TGI [10]: > 504 µM; GI50 [9]: > 750 µM; TGI [11]: 546 µM; TGI [12]: 635 µM; GI50 [1]: > 750 µM; GI50 [3]: > 750 µM; GI50 [4]: 619 µM; GI50 [5]: > 750 µM
CC/C(=C(/CC)c1ccc([O-])cc1)c1ccc([O-])cc1.CC/C(=C(\CC)c1ccc([O-])cc1)c1ccc([O-])cc1.O=C([CH-]C(=O)c1ccccc1)c1ccccc1.O=C([CH-]C(=O)c1ccccc1)c1ccccc1.O=C([CH-]C(=O)c1ccccc1)c1ccccc1.O=C([CH-]C(=O)c1ccccc1)c1ccccc1.[Ti+4].[Ti+4] | – | > 100 | > 100 µM | – | – | – | 77.8 | – | > 100 µM | GI50 [9]: 83.4 µM; GI50 [7]: 29.5 µM; GI50 [2]: 72.4 µM; GI50 [3]: 28.7 µM
CN(C)c1ccc(/C=C2\N=C(c3ccc([N+](=O)[O-])cc3)OC2=O)cc1 | – | – | – | – | – | > 100 µM | – | – | – | –
CC(=O)c1c(C)n(C)c2c1nnc1ccccc12 | – | – | – | – | – | > 100 µM | – | – | – | –
C/C1=C/C2=CC(C)C[C@@H]2C(=O)[C@]2(C)C(=O)CC(C)(C)[C@H]2CC1=O (some centres not stated) | – | – | – | – | – | > 50 µM | – | – | – | –
c1ccc(-c2cc(C3CO3)c3ccccc3n2)cc1 (configuration not stated) | – | – | – | – | – | 39.4 µM | – | – | – | –
COc1ccc2c(c1)C(=O)C(=O)c1cc(O)c(OC)c(OC)c1-2 | – | – | – | – | – | 1.4 µM and 2.55 µM | – | – | – | GI50 [6]: 1.28 µM
O=C1c2ccccc2C(=O)c2c(NCCNCCO)ccc(O)c21 | 18.8 | 20.2 | 10.7 µM | 12.4 µM | 17.4 µM | – | 12.3 | – | 21.4 µM | –
O=C1OCCC1C(O)C1c2ccccc2-c2ccccc21 (configuration not stated) | > 100 | > 100 | – | > 100 µM | > 100 µM | – | – | – | – | –
CN(C)CCNC(=O)Cn1cc([N+](=O)[O-])c(=O)c2ccccc21 | – | – | – | – | – | > 100 µM | – | – | – | –
CC(=O)O[C@]1(C)OC(=O)[C@@H](C)N1[N+](=O)[O-] | – | > 100 | > 100 µM | > 100 µM | > 100 µM | – | > 100 | – | > 100 µM | –
CC1(C)CCc2cc3c(cc2O1)OCC1c2cc4c(cc2OC31)OCO4 (configuration not stated) | > 100 | – | – | > 100 µM | > 100 µM | – | > 100 | > 100 | > 100 µM | –
Cc1ccc(C)c(NC(=O)NCc2ccc(Cl)cc2)c1 | – | – | – | – | – | > 100 µM | – | – | – | –
